pIC50, pKi: −log10 of the molar value.
Legend:
muscarinic receptors = settings: cited from earlier work
[1] = target: T1, Monoamine Oxidase-A (MAO-A) (Homo sapiens, UniProt P21397); settings: cited from earlier work
T1 sequence (P21397 1-527): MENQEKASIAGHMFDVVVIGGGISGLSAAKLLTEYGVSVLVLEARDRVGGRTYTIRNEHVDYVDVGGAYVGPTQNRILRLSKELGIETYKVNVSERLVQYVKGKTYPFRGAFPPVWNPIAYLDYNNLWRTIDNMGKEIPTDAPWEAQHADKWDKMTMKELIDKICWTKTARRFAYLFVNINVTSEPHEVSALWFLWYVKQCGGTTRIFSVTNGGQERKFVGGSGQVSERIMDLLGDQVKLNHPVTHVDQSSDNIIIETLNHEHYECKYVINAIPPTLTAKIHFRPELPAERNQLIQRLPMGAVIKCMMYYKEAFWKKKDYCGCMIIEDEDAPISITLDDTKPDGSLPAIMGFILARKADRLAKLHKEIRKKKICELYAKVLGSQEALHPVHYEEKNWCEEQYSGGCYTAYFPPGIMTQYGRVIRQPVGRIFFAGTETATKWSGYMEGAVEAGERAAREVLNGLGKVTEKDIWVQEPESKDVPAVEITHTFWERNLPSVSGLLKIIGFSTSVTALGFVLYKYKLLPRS

5-HT3 receptor = target: T2, 5-HT3 receptor (Mus musculus, UniProt P23979); settings: radioligand binding; read-out: Ki, affinity for the 5-HT3 receptor; cited from earlier work
T2 construct: host or cells: N1E-115 mouse neuroblastoma cells
T2 sequence (P23979 24-489): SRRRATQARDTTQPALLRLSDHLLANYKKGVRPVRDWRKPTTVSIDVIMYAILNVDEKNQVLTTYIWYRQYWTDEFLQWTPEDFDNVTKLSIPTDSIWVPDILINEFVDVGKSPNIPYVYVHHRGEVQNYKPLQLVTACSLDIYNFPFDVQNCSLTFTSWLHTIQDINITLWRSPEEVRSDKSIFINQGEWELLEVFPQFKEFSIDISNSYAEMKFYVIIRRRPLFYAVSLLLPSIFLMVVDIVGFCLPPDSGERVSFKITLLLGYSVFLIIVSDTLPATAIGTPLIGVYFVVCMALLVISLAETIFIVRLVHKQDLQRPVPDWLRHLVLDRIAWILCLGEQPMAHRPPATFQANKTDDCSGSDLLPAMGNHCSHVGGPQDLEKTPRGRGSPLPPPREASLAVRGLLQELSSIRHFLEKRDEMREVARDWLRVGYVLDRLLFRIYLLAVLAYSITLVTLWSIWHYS

[2] = test system: bladder capacity during acetic acid irritation; assay: Dilute Acetic Acid Model-Cats, cystometry; type: in vivo, cat
Protocol: Six alpha-chloralose anesthetized (50-100 mg/kg) normal female cats (2.5-3.5 kg; Harlan) were utilized in this study.
MCI-225 was dissolved in 5% methylcellulose in water at 3.0, 10.0 or 30 mg/ml Animals were dosed by volume of injection=body weight in kg.
Female cats (2.5-3.5 kg; Harlan) had their food removed the night before the study. The following morning, the cats were anesthetized with isoflurane and prepped for surgery using aseptic technique. Polyethylene catheters were surgically placed to permit the measurement of bladder pressure, urethral pressure, arterial pressure, respiratory rate as well as for the delivery of drugs. Fine wire electrodes were implanted alongside the external urethral anal sphincter. Following surgery, the cats were slowly switched from the gas anesthetic isoflurane (2-3.5%) to alpha-chloralose (50-100 mg/kg). During control cystometry, saline was slowly infused into the bladder (0.5-1.0 ml/min) for 1 hour. The control cystometry was followed by 0.5% acetic acid in saline for the duration of the experiment. After assessing the cystometric variables under these baseline conditions, the effects of MCI-225 on bladder capacity were determined via a 3 point dose response protocol.
Data was analyzed using a non-parametric One-Way ANOVA (Friedman Test) with the post-hoc Dunn's multiple comparison t test. P<0.05 was considered significant.

[3] = test system: α1, α2, β1, β2, 5-HT1, 5-HT1A, 5-HT1C, 5-HT2, 5-HT4, 5-HT6, 5-HT7, D1, D2, Muscarinic, M1, M2, M3, Nicotonic, H1, H2, GABA-A, GABA-B, BZP, Opiate …; settings: all receptors of the panel other than 5-HT3; read-out: IC50, binding to the additional receptors tested; cited from earlier work
[4] = target: T3, Monoamine Oxidase-B (MAO-B) (Homo sapiens, UniProt P27338); settings: cited from earlier work
T3 sequence (P27338 1-520): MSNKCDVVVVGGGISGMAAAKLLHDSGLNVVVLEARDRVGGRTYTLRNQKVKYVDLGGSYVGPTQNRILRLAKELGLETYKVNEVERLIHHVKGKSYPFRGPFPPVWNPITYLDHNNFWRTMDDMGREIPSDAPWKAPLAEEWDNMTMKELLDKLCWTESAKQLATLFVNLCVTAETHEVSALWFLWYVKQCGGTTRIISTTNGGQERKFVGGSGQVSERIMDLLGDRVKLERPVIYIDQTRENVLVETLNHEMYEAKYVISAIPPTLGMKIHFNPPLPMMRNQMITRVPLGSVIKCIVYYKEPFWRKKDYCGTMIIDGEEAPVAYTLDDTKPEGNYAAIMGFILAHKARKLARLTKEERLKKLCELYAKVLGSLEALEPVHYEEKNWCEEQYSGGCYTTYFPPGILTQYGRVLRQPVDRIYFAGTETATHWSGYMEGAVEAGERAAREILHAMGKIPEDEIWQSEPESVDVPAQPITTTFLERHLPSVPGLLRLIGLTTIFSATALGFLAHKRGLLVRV

[5] = test system: bladder capacity during acetic acid irritation; assay: Dilute Acetic Acid Model-rats, filling cystometry; type: in vivo, rat; settings: for bladder capacity vs AA/Veh 3: rats, intraduodenal
Source text: Female rats (250-275 g BW, n=8) were anesthetized with urethane (1.2 g/kg) and a saline-filled catheter (PE-50) was inserted into the proximal duodenum for intraduodenal drug administration. A flared-tipped PE-50 catheter was inserted into the bladder dome, via a midline lower abdominal incision, for bladder filling and pressure recording and secured by ligation. The abdominal cavity was moistened with saline and closed by covering with a thin plastic sheet in order to maintain access to the bladder for emptying purposes. Fine silver or stainless steel wire electrodes were inserted into the external urethral sphincter (EUS) percutaneously for electromyography (EMG). Animals were positioned on a heating pad which maintained body temperature at 37° C.
Saline and all subsequent infusates were continuously infused at a rate of about 0.055 ml/min via the bladder filling catheter for about 60 minutes to obtain a baseline of lower urinary tract activity (continuous cystometry; CMG). […] Bladder capacity (ml) was calculated as the flow rate of the bladder filling solution (ml/min) multiplied by the elapsed time between commencement of bladder filling and occurrence of bladder contraction (min).
Following the control period, a 0.25% acetic acid solution in saline (AA) was infused into the bladder to induce bladder irritation. […] Following injection of the third vehicle control, bladder capacity was again measured, as described above but using AA to fill the bladder. […] Bladder capacity was measured as described above using AA to fill the bladder, at 20 and 50 minutes following each subsequent drug treatment.
Bladder capacity was determined for each treatment regimen as described above (flow rate of the bladder filling solution (ml/min) multiplied by the elapsed time between commencement of bladder filling and occurrence of bladder contraction (min)) and converted to % Bladder Capacity normalized to the last vehicle measurement of the AA/Veh 3 treatment group. Data were then analyzed by non-parametric ANOVA for repeated measures (Friedman Test) with Dunn's Multiple Comparison test. […]

[6] = preclinical and clinical studies, cited from earlier work

SMILES | anticholinergic activity (muscarinic receptors) | inhibition of MAO-A activity [1] | pKi (5-HT3 receptor) | bladder capacity following acetic acid irritation ([2]; cats n=6, 3 point dose response 3, 10, 30 mg/kg, P<0.0103) | bladder capacity, individual dose significance ([2]; cats, 30 mg/kg, P<0.05) | pIC50 [3] | inhibition of MAO-B activity [4] | bladder capacity (% normalized to AA/Veh 3) ([5]; rats n=8, intraduodenal, cumulative 3-30 mg/kg, p=0.0005 Friedman test) | bladder capacity vs AA/Veh 3 ([5]; 10 mg/kg, p<0.05 Dunn's test) | bladder capacity vs AA/Veh 3 ([5]; 30 mg/kg, p<0.001 Dunn's test) | blood levels of gabapentin after XP13512 ([6]; broad range of oral doses) | absorption from the large intestine [6]
Cc1cc2c(-c3ccccc3F)nc(N3CCNCC3)nc2s1 [MCI-225, 4-(2-fluorophenyl)-6-methyl-2-(1-piperazinyl)thieno[2,3-d]pyrimidine] | substantially no anticholinergic activity | did not inhibit | > 7.00 | significant dose-dependent increase in bladder capacity | individual dose significance attained | < 6.00 | did not inhibit | dose-dependent increase in bladder capacity | significantly higher than AA/Veh 3 | significantly higher than AA/Veh 3 |  | 
CC(OC(=O)NCC1(CC(=O)O)CCCCC1)OC(=O)C(C)C (stereo not drawn) [XP13512] |  |  |  |  |  |  |  |  |  |  | dose proportional blood levels of gabapentin | absorbed efficiently from the large intestine
